Measurements reported in patent US8497089B2, “Method to predict toxicity using the analysis of dynamic organelle behaviour” (Innovative Concepts in Drug Development (ICDD), priority 2007, dated 2013).
Where a name gives a salt, the structure may show the parent alone.

How the values were obtained:
[1] = test system: primary human fibroblasts; assay: Variations of mitochondrial relationship with the cytoskeleton (area containing entwined mitochondria); details: area containing entwined mitochondria in percent of total cell area; FIG. 4 for paclitaxel
[2] = test system: primary human fibroblasts; assay: Variations of mitochondrial morphology (mitochondria length, doughnut formation); type: cell-based; details: 0.1 to 10 μM, in percent of the vehicle
Source text: Measured parameters can include, but are not restricted to, the length of the mitochondria allowing for an appreciation of the equilibrium between fusion and fission, the number of mitochondria in a doughnut shape per cell, the number of mitochondrial derived vesicle per cell and the number of mitochondria undergoing swelling/aggregation per cell.
(§1) Images were captured for 20-40 frames every 3-15 sec on a z scale spanning 1 μm around the initial center of focus. Z slides were reconstructed to generate a movie that was further analyzed for mitochondrial tracking, shape recognition, length measurements and intensities measurements.
Changes in mitochondrial morphology, i.e. in the mitochondria length and in the formation of doughnuts, were observed associated with compound toxicity in a dose dependent manner.
The mitochondria length and the formation of doughnuts are two parameters which indicate the dynamic modulation of the fission-fusion phenomenon that occurs in the mitochondria. When very short, the mitochondria cannot assume a doughnut shape anymore, thus making the loss of the doughnut shapes a signal very significant of a toxicity than cannot be compensate by the fission-fusion dynamics. When the equilibrium of fission-fusion is impaired the fragmentation of the mitochondria is associated with neurodegeneration (Knott et al., 2008).

[3] = test system: primary human fibroblasts; assay: Variations of mitochondrial motility; type: cell-based; details: 0.1 μM, 30 minutes to 16 hours at 37° C, vs vehicle; FIG. 2
Experimental: The speed of an organelle' movements is measured by the displacement in μm of this organelle within the lapse of two captured frames. This measure is repeated over the total length of the image capture. Speed can be expressed as an average velocity observed for an organelle over the duration of the capture or by the maximal velocity observed for an organelle over the same duration.
The amplitude of organelle movements is expressed as a variable of the frequency of bursts in the total displacement of one organelle. A burst is defined as a sudden displacement within 30% of the maximal displacements of an organelle during the period of capture.
The frequency of organelle movements is expressed as a number of periods during which the organelle remains immobile.
as §1
Mitochondrial displacement was assessed by the measure of the mitochondrial velocity, the amplitude of its movement and particularly the frequency of bursts and the frequency of movements represented by the periods of movement arrests (FIG. 2). […]

SMILES	variation of mitochondrial relationship with the cytoskeleton [1]	variations of mitochondria length ([2]; FIG. 3A)	variations of the formation of doughnuts ([2]; FIG. 3B)	number of immobilization periods of mitochondria [3]	variations of the mitochondrial motility [3]
Cc1ccc(NC(=O)c2ccc(CN3CCN(C)CC3)cc2)cc1Nc1nccc(-c2cccnc2)n1 [imatinib mesylate]	did not induce any variation	induced variations	induced variations	increasing the number of immobilization periods of mitochondria	induced variations of the mitochondrial motility
CC(=O)O[C@H]1C(=O)[C@@]2(C)[C@H]([C@H](OC(=O)c3ccccc3)[C@]3(O)C[C@H](OC(=O)[C@H](O)[C@@H](NC(=O)c4ccccc4)c4ccccc4)C(C)=C1C3(C)C)[C@]1(OC(C)=O)CO[C@@H]1C[C@@H]2O [paclitaxel]	affected the relationship of mitochondria with cytoskeleton in a dose-dependent manner				
